In patent US5104888A, “Thiazolidine derivatives, their preparation and use” (Sankyo Company, Limited, priority 1985, dated 1992):

Experiments:
[1] = system: male mice of the ddY strain; assay: Toxicity (acute oral, one-week observation); format: in vivo
Experimental: The test animals used were male mice of the ddY strain. The animals were employed in groups of 3. The animals of each group were administered orally with a single test compound in a dose of 300 mg/kg body weight. The compounds employed were those prepared as described in Examples 3, 4, 5 and 13.

[2] = molecular target: T1, Aldose reductase (Bos taurus, UniProt P16116); assay: Effect on Aldose Reductase (inhibition of enzyme activity, photometric); format: biochemical; conditions: 1×10^-5 M, aldose reductase partially purified from bovine lenses; read-out: Percent Inhibition of aldose reductase
T1 construct: Aldose reductase was separated and partially purified from bovine lenses; from tissue; host or cells: bovine lens
Experimental: Aldose reductase was separated and partially purified from bovine lenses by the method of Hayman and Kinoshita [J. Biol. Chem., 240, 877 (1965)]. Enzyme activities were photometrically determined by the method of Varma et al. [Biochem, Pharmac., 25, 2505 (1976)].
The inhibition of aldose reductase activity was determined employing each test compound in a concentration of 1×10^-5 M, and the results are as shown in Table 30.
As a control, the known compound, 5-[4-(1-methylcyclohexylmethoxy)benzyl]thiazolidine-2,4-dione ("Cpd. A") was tested by the same method and the result is also shown in Table 30: […]

[3] = oral, 300 mg/kg body weight, male ddY mice, groups of 3, 1 week

SMILES	abnormalities attributable to the test compounds during observation [1, 3]	survival at the end of the 1 week observation period [1, 3]	inhibition at 10 µM [2] [%]	other results
CCCCCCCCC1(COc2ccc(CC3SC(=O)NC3=O)cc2)CCc2c(C)c(O)c(C)c(C)c2O1 (stereo not drawn) [Example 3, 5-[4-(6-Hydroxy-5,7,8-trimethyl-2-octylchroman-2-yl-methoxy)benzyl]thiazolidine-2,4-dione]	no abnormalities	All animals were alive	–	–
CC1(COc2ccc(CC3SC(=O)NC3=O)cc2)CCCCC1 (stereo not drawn) [Cpd. A, 5-[4-(1-methylcyclohexylmethoxy)benzyl]thiazolidine-2,4-dione, reference compound]	–	–	16.2	–
Cc1c(C)c2c(c(C)c1OCC(=O)O)C(=O)CC(C)(COc1ccc(CC3SC(=O)NC3=O)cc1)O2 (stereo not drawn) [Example 59, α-{2-[4-(2,4-Dioxothiazolidin-5-ylmethyl)-phenoxymethyl]-2,5,7,8-tetramethyl-4-oxochroman-6-yloxy}acetic acid]	–	–	79.5	–
Cc1c(C)c2c(c(C)c1OCC(=O)O)CCC(C)(COc1ccc(CC3SC(=O)NC3=O)cc1)O2 (stereo not drawn) [Example 58, α-{2-[4-(2,4-Dioxothiazolidin-5-ylmethyl)phenoxymethyl]-2,5,7,8-tetramethylchroman-6yloxy}acetic acid]	–	–	51.6	–
Cc1c(C)c2c(c(C)c1O)/C(=N/O)CC(C)(COc1ccc(CC3SC(=O)NC3=O)cc1)O2 (stereo not drawn) [Example 13, 5-{4-[6-Hydroxy-4-(E)-hydroxyimino-2,5,7,8-tetramethylchroman-2-ylmethoxy]benzyl}thiazolidine-2,4-dione]	–	–	55.5	abnormalities attributable to the test compounds during observation ([1]; mouse, in vivo, po, 300 mg/kg): no abnormalities; survival at the end of the 1 week observation period ([1]; mouse, in vivo, po, 300 mg/kg): All animals were alive
CC(C)(C)CC(C)(C)c1cc2c(cc1O)CCC(C)(COc1ccc(CC3SC(=O)NC3=O)cc1)O2 (stereo not drawn) [Example 5, 5-{4-[6Hydroxy-2-methyl-7-(1,1,3,3-tetramethylbutyl)-chroman-2-ylmethoxy]benzyl}thiazolidine-2,4-dione]	no abnormalities	All animals were alive	–	–
CC(=O)Oc1cc2c(cc1C(C)(C)CC(C)(C)C)OC(C)(COc1ccc(CC3SC(=O)NC3=O)cc1)CC2 (stereo not drawn) [Example 4, 5-[4-(6-Acetoxy-2-methyl-7-(1,1,3,3-tetramethylbutyl)-chroman-2-ylmethoxy)benzyl]thiazolidine-2,4dione]	no abnormalities	All animals were alive	–	–
